From patent EP1614683B1, “Indazole compounds and pharmaceutical compositions for inhibiting protein kinases, and methods for their use” (priority 1999, dated 2001) come the findings set out here.

In one data set the target is human FGF-R1 (Homo sapiens, UniProt P11362, C488A/C584S/L457V). Briefly: FGF-R spectrophotometric assay. Type of data set: biochemical. The protocol: The spectrophotometric assay was carried out as described above for VEGF-R2, except for the following changes in concentration: FGF-R = 50 nM, ATP = 2 mM, and poly(E4Y1) =15 mM.
Sequence of human FGF-R1 (P11362 456-766 L457V/C488A/C584S): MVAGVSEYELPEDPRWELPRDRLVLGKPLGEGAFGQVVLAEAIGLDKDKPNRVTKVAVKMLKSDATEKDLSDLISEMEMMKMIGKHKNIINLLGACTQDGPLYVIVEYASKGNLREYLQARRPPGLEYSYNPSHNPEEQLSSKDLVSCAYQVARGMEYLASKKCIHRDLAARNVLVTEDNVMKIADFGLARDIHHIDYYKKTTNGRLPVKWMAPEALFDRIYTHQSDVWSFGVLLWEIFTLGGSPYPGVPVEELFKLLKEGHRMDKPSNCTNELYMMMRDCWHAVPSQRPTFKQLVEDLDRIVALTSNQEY
Another data set addresses LCK tyrosine kinase (Homo sapiens, UniProt P06239, C224D/P223M). The data set is described as follows: LCK spectrophotometric assay. It counts as biochemical. The protocol:
The spectrophotometric assay was carried out as described above for VEGF-R2, except for the following changes in concentration: LCK = 60 nM, MgCl2 = 0 mM, poly(E4Y1) = 20 mM.

Data set [1] has as its system human umbilical vein endothelial cells (HUVEC). Briefly: HUVEC proliferation assay (VEGF-stimulated, MTT). Type of data set: cell-based. The settings on record: for IC50: Homo sapiens, HUVEC, Table 1. Here is the method:
This assay determines the ability of a test compound to inhibit the growth factor-stimulated proliferation of human umbilical vein endothelial cells ("HUVEC"). HUVEC cells (passage 3-4, Clonetics, Corp.) were thawed into EGM2 culture medium (Clonetics Corp) in T75 flasks. Fresh EGM2 medium was added to the flasks 24 hours later. Four or five days later, cells were exposed to another culture medium (F12K medium supplemented with 10% fetal bovine serum (FBS), 60 µg/mL endothelial cell growth supplement (ECGS), and 0.1 mg/mL heparin). Exponentially-growing HUVEC cells were used in experiments thereafter. Ten to twelve thousand HUVEC cells were plated in 96-well dishes in 100 µl of rich, culture medium (described above). The cells were allowed to attach for 24 hours in this medium. The medium was then removed by aspiration and 105 µl of starvation media (F12K+1% FBS) was added to each well. After 24 hours, 15 µl of test agent dissolved in 1% DMSO in starvation medium or this vehicle alone was added into each treatment well; the final DMSO concentration was 0.1%. One hour later, 30 µl of VEGF (30 ng/mL) in starvation media was added to all wells except those containing untreated controls; the final VEGF concentration was 6 ng/mL. Cellular proliferation was quantified 72 hours later by MTT dye reduction, at which time cells were exposed for 4 hours MTT (Promega Corp.).

For data set [2] the following is noted: mouse, in vivo.
The mark [3] stands for this setting: Table 1, compound concentration 1 µM, read-out: FGF-P* (% inhibition).
The mark [4] stands for this setting: Table 1, compound concentration 1 µM, read-out: Lck-P* (% inhibition).

Like-named read-outs stand apart in the source and are kept apart here. Where only a bound is given, the exact number is not on record here.

Sequence of LCK tyrosine kinase (P06239 223-509 P223M/C224D): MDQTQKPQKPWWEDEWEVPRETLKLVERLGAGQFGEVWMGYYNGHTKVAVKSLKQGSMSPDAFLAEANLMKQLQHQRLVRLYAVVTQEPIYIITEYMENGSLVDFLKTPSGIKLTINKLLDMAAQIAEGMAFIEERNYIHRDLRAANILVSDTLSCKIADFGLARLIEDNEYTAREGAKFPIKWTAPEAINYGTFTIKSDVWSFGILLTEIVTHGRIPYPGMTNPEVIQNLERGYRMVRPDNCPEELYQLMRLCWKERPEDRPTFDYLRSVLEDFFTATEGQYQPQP

`O=C(Nc1cccc(Sc2ccc3c(/C=C/c4ccccc4)n[nH]c3c2)c1)c1ccccc1` [20(b), 6-(3-(Benzoylamido)-phenylsulfanyl)-3-styryl-1H-indazole]: the inhibition – broadly, the drop in the measured response relative to a control, in per cent – at 1 µM on human FGF-R1 (setting [3]) was 28%; on LCK tyrosine kinase (setting [4]), 23%. The IC50 (as a rule, the midpoint of a concentration-inhibition curve) in data set [1] (read-out: HUVEC IC50) was found to be 8.2 nM.

On to `CC(C)(C)c1ccc(C(=O)Nc2cccc(C(=O)c3ccc4c(/C=C/c5ccccn5)n[nH]c4c3)c2)cc1` [Reference Example 41(s), 6-[3-(4-t-butylbenzamido)benzoyl}-3-E-[2-(pyridin-2-yl)ethenyl]-1H-indazole], for which the inhibition at 1 µM at human FGF-R1 (setting [3]) worked out at 86%; at LCK tyrosine kinase (setting [4]) it was 53%.

As for `Oc1cccc(Oc2ccc3c(/C=C/c4ccccc4)n[nH]c3c2)c1` [9(a), 3-(E-styryl)-6-[3-hydroxyphenoxy]-1H-indazole], the IC50 in data set [1] (read-out: HUVEC IC50) came to 870 nM.

In the case of `CNC(=O)c1cccc2[nH]c(-c3n[nH]c4cc(-c5ccc(O)cc5OC)ccc34)nc12` [Reference Example 25(j), 3-(4-methylcarbamoyl-1H-benzoimidazol-2-yl)-6-(2-methoxy-4-hydroxy-phenyl)-1H-indazole], at human FGF-R1 (read-out: FGF* (% inhibition)), the inhibition at 1 µM is 70%.

For the compound `Cc1cncc(C(=O)Nc2cccc(C(=O)c3ccc4c(/C=C/c5ccccc5)n[nH]c4c3)c2)c1` [19(e), 6-[3-(5-methylpyridin-3-ylcarboxamide)benzoyl]-3-E-styryl-1H-indazole], the IC50 in data set [1] (read-out: HUVEC IC50) is greater than 300 nM.

In the case of `O=C(Nc1cccc(Oc2ccc3c(/C=C/c4ccccc4)n[nH]c3c2)c1)c1cccc2[nH]ccc12` [Reference Example 30(d), 6-[3-(indol-4-ylcarboxamido)phenoxy]-3-E-stryrylindazole], in data set [1] (+ albumin, read-out: HUVEC + albumin IC50), the IC50 worked out at 3.8 nM.

Take `CN(C)c1cccc(C(=O)Nc2cccc(N(C)c3ccc4c(/C=C/c5ccc6c(c5)OCO6)n[nH]c4c3)c2)c1` [16(c), N-(3-{[3-(2-Benzo[1,3]dioxol-5-yl-vinyl)-1H-indazol-6-yl]-methyl-amino}-phenyl)-3-dimethylamino-benzamide]: the IC50 in data set [1] (read-out: HUVEC IC50) was 100 to 1000 nM.

In the case of `COc1cc(O)ccc1-c1ccc2c(-c3nc4ccccc4[nH]3)n[nH]c2c1` [24(d), 3-1H-Benzoimidazol-2-yl-6-(4-hydroxy-2-methoxyphenyl)-1H-indazole], the inhibition at 1 µM worked out at 66% on human FGF-R1 (read-out: FGF* (% inhibition)) and 51% on LCK tyrosine kinase (read-out: Lck* (% inhibition)).

Regarding `COc1cc(O)ccc1-c1ccc2c(-c3nc4c(SCCO)cccc4[nH]3)n[nH]c2c1` [Reference Example 25(f), 3-[4-(2-hydroxyethylsulfanyl)-1H-benzoimidazol-2-yl)-6-(2-methoxy-4-hydroxyphenyl)-1H-indazole], the values for the inhibition at 1 µM at human FGF-R1 (read-out: FGF* (% inhibition)) and at LCK tyrosine kinase (read-out: Lck* (% inhibition)) were 56% and 58%, respectively.

For `C=C(c1cccc(NC(=O)OCc2ccccc2)c1)c1ccc2c(/C=C/c3ccccc3)n[nH]c2c1` [22(c)], the IC50 in data set [1] (read-out: HUVEC IC50) was found to be 38 nM.

For the compound `C=CCOc1cc(-c2ccc3c(/C=C/c4ccc(OC)c(OC)c4)n[nH]c3c2)ccc1O` [1(c), 3-[E-2-(3,4-Dimethoxy-phenyl)vinyl]-6-(3-allyloxy-4-hydroxyphenyl)-1H-indazole], the inhibition at 1 µM at LCK tyrosine kinase (read-out: Lck-P* (% inhibition)) came out at 46%.

Take `COc1cc(-c2ccc3c(-c4ccccc4)n[nH]c3c2)ccc1O` [2(b), 3-phenyl-6-(3-methoxy-4-hydroxy-phenyl)-1H-indazole]: the Ki (as a rule, a measure of affinity in units of concentration, obtained from inhibition or displacement) at human FGF-R1 (read-out: FGF-P* (Ki, cell in µM), Table 1) is 228 µM.

Regarding `NC(=O)c1ccccc1Sc1ccc2c(/C=C/c3ccccn3)n[nH]c2c1` [H-X1], the “% inhibition of the proliferation of HUVEC, 0.5 nM” value in data set [1] (Library Table II, Y = S (reference Example), nominal concentration 0.5 nM, crude library reaction mixtures, >50% considered significant) was determined as 9%. Further, the “% inhibition of the proliferation of HUVEC, 2 nM” value in data set [1] (Library Table II, Y = S (reference Example), nominal concentration 2 nM, crude library reaction mixtures, >50% considered significant) is listed as 30%.

With `CN(c1cccc(NC(=O)c2ccc(O)c(C(C)(C)C)c2)c1)c1ccc2c(/C=C/c3ccc4c(c3)OCO4)n[nH]c2c1` [16(f)], the half-maximal inhibitory concentration (IC50) in data set [1] (read-out: HUVEC IC50) was greater than 30 nM.

Take `Cc1cc(C(=O)Nc2cc(Nc3ccc4c(/C=C/c5ccccn5)n[nH]c4c3)c(F)cc2C)n(C)n1` [48 (b)]: in data set [2] (po, 25 mg/kg, pH 2.3), the AUCleast came to 2191 ng·h/mL and the T1/2 was 4 h.

On to `CC(=O)N1CCC(C(=O)Nc2cccc(Oc3ccc4c(/C=C/c5ccc(Cl)cc5)n[nH]c4c3)c2)CC1` [Reference Example 30(b), 6-[3-(1-acetylpiperidin-4-ylcarboxamido)phenoxy]-3-E-[2-(4-chlorophenyl)ethenyl]-1H-indazole], for which the IC50 in data set [1] (read-out: HUVEC IC50) amounted to 90 nM.

Take `O=C(Nc1nccs1)c1ccccc1Sc1ccc2c(/C=C/c3ccccn3)n[nH]c2c1` [35 (y)]: the “Cmin (7 hr conc.)” value in data set [2] (ip, 25 mg/kg, 7 h, pH 2.3) is 2 ng/mL; in data set [2] (po, 50 mg/kg, 7 h, pH 2.3), 1 ng/mL. For the same compound, the AUCleast in data set [2] (ip, 25 mg/kg, pH 2.3) turned out to be 159 ng·h/mL; in data set [2] (po, 50 mg/kg, pH 2.3), 58 ng·h/mL. In addition, the T1/2 came out at 1.2 h in data set [2] (ip, 25 mg/kg, pH 2.3) and 1.2 h in data set [2] (po, 50 mg/kg, pH 2.3).

For the compound `Cn1cccc1C(=O)NNC(=O)c1ccccc1Sc1ccc2c(/C=C/c3ccccn3)n[nH]c2c1` [35 (e)], in data set [2] (ip, 25 mg/kg, pH 2.3), the AUCleast turned out to be 2409 ng·h/mL and the T1/2 was found to be 1.8 h. In addition, in data set [2] (po, 50 mg/kg, 7 h, pH 2.3), the “Cmin (7 hr conc.)” value is 6 ng/mL. In data set [2] (po, 50 mg/kg, pH 2.3), this compound returned an AUCleast of 1503 ng·h/mL and a T1/2 of 0.9 h.

As to `Cc1cccc(C(=O)Nc2cccc(Oc3ccc4c(/C=C/c5ccccc5)n[nH]c4c3)c2)c1` [5 (b)], in data set [2] (po, 10 mg/kg, pH 2.3), the AUCleast is 61 ng·h/mL and the T1/2 turned out to be 3.1 h.

On to `CCn1nc(C)cc1C(=O)Nc1cccc(C(=O)c2ccc3c(/C=C/c4ccccn4)n[nH]c3c2)c1.Cl` [59 (a)], for which the AUCleast in data set [2] (po, 8 mg/kg) amounted to 7707 ng·h/mL; in data set [2] (po, 40 mg/kg) it was 57240 ng·h/mL; in data set [2] (po, 200 mg/kg), 156153 ng·h/mL. The T1/2 came out at 1.5 h in data set [2] (po, 8 mg/kg); 2.4 h in data set [2] (po, 40 mg/kg); 9.4 h in data set [2] (po, 200 mg/kg).

`Cn1ccnc1/C=N/NC(=O)c1ccccc1Sc1ccc2c(/C=C/c3ccccn3)n[nH]c2c1` [36 (a)]: in data set [2] (po, 25 mg/kg, pH 2.3), the AUCleast amounted to 605 ng·h/mL and the T1/2 came to 1.5 h.

Consider `C#CCNC(=O)c1ccccc1Sc1ccc2c(/C=C/c3ccccn3)n[nH]c2c1` [35 (cc)], for which the “Cmin (7 hr conc.)” value in data set [2] (ip, 25 mg/kg, 7 h, pH 2.3) amounted to 6 ng/mL; in data set [2] (po, 50 mg/kg, 7 h, pH 2.3), 5 ng/mL. Also, the AUCleast amounted to 2223 ng·h/mL in data set [2] (ip, 25 mg/kg, pH 2.3) and 1718 ng·h/mL in data set [2] (po, 50 mg/kg, pH 2.3). In addition, the T1/2 in data set [2] (ip, 25 mg/kg, pH 2.3) was 1.4 h; in data set [2] (po, 50 mg/kg, pH 2.3), 0.9 h.

In data set [2] (ip, 25 mg/kg, pH 2.3), `C=CCONC(=O)c1ccccc1Sc1ccc2c(/C=C/c3ccccn3)n[nH]c2c1` [35 (j)] registered an AUCleast of 9531 ng·h/mL and a T1/2 of 1.3 h. Further, the “Cmin (7 hr conc.)” value in data set [2] (po, 50 mg/kg, 7 h, pH 2.3) is 5 ng/mL. In data set [2] (po, 50 mg/kg, pH 2.3), this compound registered an AUCleast of 1328 ng·h/mL and a T1/2 of 4.5 h.

As for `O=C(NNC(=O)c1ccccc1Sc1ccc2c(/C=C/c3ccccn3)n[nH]c2c1)c1cccs1` [35 (m)], the AUCleast was found to be 226 ng·h/mL in data set [2] (ip, 25 mg/kg, pH 2.3) and 10 ng·h/mL in data set [2] (po, 25 mg/kg, pH 2.3). In data set [2] (ip, 25 mg/kg, pH 2.3), the T1/2 amounted to 4.0 h. Moreover, the “Cmin (7 hr conc.)” value in data set [2] (po, 25 mg/kg, 420 min, pH 2.3) came to 0 ng/mL.

On to `CC(C)=CC(=O)Nc1cccc(C(=O)c2ccc3c(/C=C/c4ccccn4)n[nH]c3c2)c1` [41 (dd)], for which the “Cmin (7 hr conc.)” value in data set [2] (po, 25 mg/kg, 7 h, pH 2.3) was determined as 1 ng/mL. In data set [2] (po, 25 mg/kg, pH 2.3), this compound came in with an AUCleast of 654 ng·h/mL and a T1/2 of 0.8 h.

In data set [2] (po, 25 mg/kg, pH 2.3), `Cc1cc(C(=O)Nc2cc(Nc3ccc4c(/C=C/c5ccccn5)n[nH]c4c3)ccc2F)n(C)n1` [49 (a)] returned an AUCleast of 712 ng·h/mL.

In data set [2] (po, 25 mg/kg, pH 2.3), `CCCONC(=O)c1ccccc1Sc1ccc2c(/C=C/c3ccccn3)n[nH]c2c1` [35 (t)] showed an AUCleast of 3199 ng·h/mL and a T1/2 of 1.1 h.

With `C=C(C)CNC(=O)c1ccccc1Sc1ccc2c(/C=C/c3ccccn3)n[nH]c2c1` [35 (ee)], the “Cmin (7 hr conc.)” value in data set [2] (ip, 25 mg/kg, 7 h, pH 2.3) came to 2 ng/mL; in data set [2] (po, 25 mg/kg, 7 h, pH 2.3), 9 ng/mL. Besides, the AUCleast in data set [2] (ip, 25 mg/kg, pH 2.3) was 546 ng·h/mL; in data set [2] (po, 25 mg/kg, pH 2.3), 157 ng·h/mL. The T1/2 in data set [2] (ip, 25 mg/kg, pH 2.3) amounted to 1.5 h; in data set [2] (po, 25 mg/kg, pH 2.3), 14.6 h.

Regarding `Cc1cc(C(=O)Nc2cc(C(=O)c3ccc4c(/C=C/c5ccccn5)n[nH]c4c3)ccc2C)n(C(C)C)n1` [41 (kk)], in data set [2] (po, 25 mg/kg, pH 2.3), the AUCleast was determined as 11612 ng·h/mL and the T1/2 is 2.0 h.
